Data on 26 compounds can be found in patent publication US20230089073A1 (Carmot Therapeutics, Inc., priority 2021, published 2023).

The assay concerns the target T1, human GLP-1 receptor (Homo sapiens, UniProt P43220).
T1 construct: expressed in transfected cells
The assay can be described thus: GLP-1R cAMP Assay. The assay is classed as cell-based. Conditions: cAMP accumulation in CHO cells stably overexpressing the human GLP-1 receptor; 30 min treatment; HitHunter cAMP kit; read-out: EC50. In a few lines: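 Luminescent enzyme-complementation detection of cAMP, read after cell lysis and overnight incubation, with dose-response curve fitting. Stimulation lasted 30 min, using 20-point triplicate dosing on CHO cells (10,000 per well) stably overexpressing human GLP-1R.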

Molecules are shown by their SMILES. A value given as a limit tells only on which side of the number the result lay.

T1 sequence (P43220 24-463): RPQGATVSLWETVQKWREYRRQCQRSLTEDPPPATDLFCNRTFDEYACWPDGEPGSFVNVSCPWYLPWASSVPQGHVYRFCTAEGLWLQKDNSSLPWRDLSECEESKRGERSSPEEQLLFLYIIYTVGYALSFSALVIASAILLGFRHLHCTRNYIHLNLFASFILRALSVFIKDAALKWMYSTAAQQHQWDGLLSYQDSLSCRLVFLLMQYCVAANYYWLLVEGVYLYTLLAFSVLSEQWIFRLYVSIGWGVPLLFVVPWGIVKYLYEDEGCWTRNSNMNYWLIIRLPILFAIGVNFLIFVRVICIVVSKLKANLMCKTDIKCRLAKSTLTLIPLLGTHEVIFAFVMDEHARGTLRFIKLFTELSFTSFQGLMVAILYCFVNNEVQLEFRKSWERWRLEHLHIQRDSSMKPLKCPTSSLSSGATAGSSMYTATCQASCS

Consider `Cc1ccc(N(C)c2cccc(CC3=CCN(Cc4nc5ccc(C(=O)O)cc5n4C[C@@H]4CCO4)CC3)c2)c(Cl)c1` [Compound 117, 2-{[4-({3-[(2-chloro-4-methylphenyl)(methyl)amino]phenyl}methyl)-1,2,3,6-tetrahydropyridin-1-yl]methyl}-1-{[(2S)-oxetan-2-yl]methyl}-1H-1,3-benzodiazole-6-carboxylic acid], for which the EC50 (as a rule, the concentration that produces a half-maximal response) lay in the range of 0.05 to 0.5 µM.
The figure for `O=C(O)c1ccc2nc(CN3CCN(C(=O)c4cccc(Cc5ccc(Cl)cc5Cl)c4)CC3)n(C[C@@H]3CCO3)c2c1` [Compound 48, 2-[(4-{3-[(2,4-dichlorophenyl)methyl]benzoyl}piperazin-1-yl)methyl]-1-{[(2S)-oxetan-2-yl]methyl}-1H-1,3-benzodiazole-6-carboxylic acid] is 0.05 to 0.5 µM; for `Cc1ccc(Oc2cccc(CN3CCN(Cc4nc5ccc(C(=O)O)cc5n4C[C@@H]4CCO4)CC3)c2)cc1` [Compound 35, 2-[(4-{[3-(4-methylphenoxy)phenyl]methyl}piperazin-1-yl)methyl]-1-{[(2S)-oxetan-2-yl]methyl}-1H-1,3-benzodiazole-6-carboxylic acid] it is > 0.5 µM.
The same measure for `CCn1cncc1Cn1c(CN2CCC(Cc3cnc(COc4ncc(C5CC5)cc4Cl)o3)CC2)nc2ccc(C(=O)O)cc21` [Compound 144, 2-({4-[(2-{[(3-chloro-5-cyclopropylpyridin-2-yl)oxy]methyl}-1,3-oxazol-5-yl)methyl]piperidin-1-yl}methyl)-1-[(1-ethyl-1H-imidazol-5-yl)methyl]-1H-1,3-benzodiazole-6-carboxylic acid]: < 0.05 µM; for `N#CCC1(Cn2c(CN3CCC(Oc4ccnc(COc5ccc(Cl)cc5Cl)n4)CC3)nc3c(F)cc(C(=O)O)cc32)CC1` [Compound 341]: < 0.05 µM; for `Cc1c(Cl)cccc1OCc1ccc(CN2CCN(Cc3nc4ccc(C(=O)O)cc4n3C[C@@H]3CCO3)CC2)o1` [Compound 8, 2-{[4-({5-[(3-chloro-2-methylphenoxy)methyl]furan-2-yl}methyl)piperzin-1-yl]methyl}-1-{[(2S)-oxetan-2-yl]methyl}-1H-1,3-benzodiazole-6-carboxylic acid]: 0.05 to 0.5 µM.
The same measure for `Cc1ccc(OCc2ccc(C(=O)N3CCN(Cc4nc5ccc(C(=O)O)cc5n4C[C@@H]4CCO4)CC3)o2)c(Cl)c1` [Compound 38, 2-[(4-{5-[(2-chloro-4-methylphenoxy)methyl]furan-2-carbonyl}piperazin-1-yl)methyl]-1-{[(2S)-oxetan-2-yl]methyl}-1H-1,3-benzodiazole-6-carboxylic acid]: > 0.5 µM.
As for `N#Cc1ccc(OCc2ncc(F)c(OC3CCN(Cc4nc5ccc(C(=O)O)cc5n4C[C@@H]4CCO4)CC3)n2)c(F)c1` [Compound 374], the EC50 is < 0.05 µM.
The figure for `O=C(O)c1ccc2nc(CN3CCC(Oc4ccnc(COc5ccc(C(F)F)cc5F)c4)CC3)n(C[C@@H]3CCO3)c2c1` [Example 297, (S)-2-((4-((2-((4-(Difluoromethyl)-2-fluorophenoxy)methyl)pyridin-4-yl)oxy)piperidin-1-yl)methyl)-1-(oxetan-2-ylmethyl)-1H-benzo[d]imidazole-6-carboxylic acid] is < 0.05 µM; for `C[C@H]1C[C@@H](Oc2nc(COc3ccc(F)cc3C#N)ncc2F)CCN1Cc1nc2ccc(C(=O)O)cc2n1C[C@@H]1CCO1` [Compound 492, 2-{[(2S,4S)-4-({2-[(2-cyano-4-fluorophenoxy)methyl]-5-fluoropyrimidin-4-yl}oxy)-2-methylpiperidin-1-yl]methyl}-1-{[(2S)-oxetan-2-yl]methyl}-1H-1,3-benzodiazole-6-carboxylic acid] it is < 0.05 µM.
As to `Cc1ccc(NCc2cccc(C(=O)N3CCN(Cc4nc5ccc(C(=O)O)cc5n4C[C@@H]4CCO4)CC3)c2)c(Cl)c1` [Compound 80, 2-{[4-(3-{[(2-chloro-4-methylphenyl)amino]methyl}benzoyl)piperazin-1-yl]methyl}-1-{[(2S)-oxetan-2-yl]methyl}-1H-1,3-benzodiazole-6-carboxylic acid], the EC50 was > 0.5 µM.
On to `O=C(O)c1ccc2nc(CN3CCC(Oc4cccc(COc5ccc(Cl)cc5Cl)c4)CC3)n(Cc3cnco3)c2c1` [Example 216, 2-((4-(3-((2,4-Dichlorophenoxy)methyl)phenoxy)piperidin-1-yl)methyl)-1-(oxazol-5-ylmethyl)-1H-benzo[d]imidazole-6-carboxylic acid], for which the EC50 was < 0.05 µM.
The same measure for `O=C(O)c1ccc2nc(CN3CCC(Cc4cnc(COc5ccc(Cl)cc5Cl)o4)CC3)n(C[C@@H]3CCO3)c2n1` [Compound 129, 2-{[4-({2-[(2,4-dichlorophenoxy)methyl]-1,3-oxazol-5-yl}methyl)piperidin-1-yl]methyl}-3-{[(2S)-oxetan-2-yl]methyl}-3H-imidazo[4,5-b]pyridine-5-carboxylic acid]: < 0.05 µM; for `C[C@@H](Oc1ccc(Cl)cc1Cl)c1ccc(C(=O)N2CCN(Cc3nc4ccc(C(=O)O)cc4n3C[C@@H]3CCO3)CC2)o1` (relative stereo) [Example 94, 2-((4-(5-((R)-1-(2,4-dichlorophenoxy)ethyl)furan-2-carbonyl)piperazin-1-yl)methyl)-1-(((S)-oxetan-2-yl)methyl)-1H-benzo[d]imidazole-6-carboxylic acid]: > 0.5 µM.
The same measure for `CCn1cncc1Cn1c(CN2CCN(C(=O)c3cccc(N(C)c4ccc(C)cc4)c3)CC2)nc2ccc(C(=O)O)cc21` [Example 46, 1-((1-Ethyl-1H-imidazol-5-yl)methyl)-2-((4-(3-(methyl(p-tolyl)amino)benzoyl)piperazin-1-yl)methyl)-1H-benzo[d]imidazole-6-carboxylic acid]: 0.05 to 0.5 µM; for `O=C(O)c1ccc2nc(CN3CCC(Oc4ccnc(COc5ccc(Cl)cc5Cl)c4)CC3)n(Cc3ncco3)c2c1` [Compound 170, 2-{[4-({2-[(2,4-dichlorophenoxy)methyl]pyridin-4-yl}oxy)piperidin-1-yl]methyl}-1-[(1,3-oxazol-2-yl)methyl]-1H-1,3-benzodiazole-6-carboxylic acid]: < 0.05 µM; for `Cc1cc(C(=O)O)cc2c1nc(CN1CCC(Oc3ccnc(COc4ccc(F)cc4C#N)n3)CC1)n2C[C@@H]1CCO1` [Compound 500, 2-{[4-({2-[(2-cyano-4-fluorophenoxy)methyl]pyrimidin-4-yl}oxy)piperidin-1-yl]methyl}-4-methyl-1-{[(2S)-oxetan-2-yl]methyl}-1H-1,3-benzodiazole-6-carboxylic acid]: < 0.05 µM.
The figure for `COC(=O)c1ccc2nc(CN3CCN(C(=O)c4ccc(COc5cccc(Cl)c5C)o4)CC3)n(C[C@@H]3CCO3)c2c1` [Compound 24, methyl 2-[(4-{5-[(3-chloro-2-methylphenoxy)methyl]furan-2-carbonyl}piperazin-1-yl)methyl]-1-{[(2S)-oxetan-2-yl]methyl}-1H-1,3-benzodiazole-6-carboxylate] is > 0.5 µM; for `O=C(O)c1ccc2nc(CN3CCC(Oc4cccc(COc5ccc(Cl)cc5F)n4)CC3)n(Cc3ncco3)c2c1` [Compound 268, 2-{[4-({6-[(4-chloro-2-fluorophenoxy)methyl]pyridin-2-yl}oxy)piperidin-1-yl]methyl}-1-[(1,3-oxazol-2-yl)methyl]-1H-1,3-benzodiazole-6-carboxylic acid] it is < 0.05 µM.
For `Cc1ccc(OCc2cccc(CC3CCN(Cc4nc5ccc(C(=O)O)cc5n4C[C@@H]4CCO4)CC3)n2)c(Cl)c1` [Compound 118, 2-{[4-({6-[(2-chloro-4-methylphenoxy)methyl]pyridin-2-yl}methyl)piperidin-1-yl]methyl}-1-{[(2S)-oxetan-2-yl]methyl}-1H-1,3-benzodiazole-6-carboxylic acid], the EC50 was < 0.05 µM.
The figure for `C[C@H]1C[C@@H](Oc2ccnc(COc3ccc(Cl)cc3C#N)n2)CCN1Cc1nc2ccc(C(=O)O)cc2n1C[C@@H]1CCO1` [Compound 489, 2-{[(2S,4S)-4-({2-[(4-chloro-2-cyanophenoxy)methyl]pyrimidin-4-yl}oxy)-2-methylpiperidin-1-yl]methyl}-1-{[(2S)-oxetan-2-yl]methyl}-1H-1,3-benzodiazole-6-carboxylic acid] is < 0.05 µM; for `N#Cc1ccc(OCc2cccc(OC3CCN(Cc4nc5c(F)cc(C(=O)O)cc5n4CC4(CF)CC4)CC3)c2)c(F)c1` [Example 300, 2-((4-(3-((4-Cyano-2-fluorophenoxy)methyl)phenoxy)piperidin-1-yl)methyl)-4-fluoro-1-((1-(fluoromethyl)cyclopropyl)methyl)-1H-benzo[d]imidazole-6-carboxylic acid] it is < 0.05 µM; for `O=C(O)c1ccc2nc(CN3CCC(Oc4cccc(COc5ccc(Cl)cc5F)c4)CC3)n(C[C@@H]3CCO3)c2c1` [Compound 221, 2-[(4-{3-[(4-chloro-2-fluorophenoxy)methyl]phenoxy}piperidin-1-yl)methyl]-1-{[(2S)-oxetan-2-yl]methyl}-1H-1,3-benzodiazole-6-carboxylic acid] it is < 0.05 µM.
The same measure for `N#Cc1ccc(COc2cccc(N3CCN(C(=O)c4ccc(-c5nnn[nH]5)nc4)CC3)n2)c(F)c1` [Example 92, 4-(((6-(4-(6-(1H-Tetrazol-5-yl)nicotinoyl)piperazin-1-yl)pyridin-2-yl)oxy)methyl)-3-fluorobenzonitrile]: 0.05 to 0.5 µM; for `O=C(c1ccc(-c2nnn[nH]2)nc1)N1CCC(Cc2ccc(COc3ccc(Cl)cc3Cl)o2)CC1` [Compound 107, 5-[4-({5-[(2,4-dichlorophenoxy)methyl]furan-2-yl}methyl)piperidine-1-carbonyl]-2-(1H-1,2,3,4-tetrazol-5-yl)pyridine]: > 0.5 µM.
The same measure for `O=C(O)c1ccc2nc(CN3CCC(Oc4ccnc(COc5ccc(Cl)cc5Cl)c4)CC3)n(C[C@H]3CCOC3)c2c1` [Compound 169, 2-{[4-({2-[(2,4-dichlorophenoxy)methyl]pyridin-4-yl}oxy)piperidin-1-yl]methyl}-1-{[(3R)-oxolan-3-yl]methyl}-1H-1,3-benzodiazole-6-carboxylic acid]: < 0.05 µM.
